From patent US7655645B2, “Indole derivatives” (N.V. Organon, priority 2007, dated 2010)

The compounds below were run against T1, human CB1 receptor (Homo sapiens, UniProt P21554) (assay: In-vitro determination of efficacy and potency at the human CB1 receptor expressed in CHO cells (luciferase reporter assay)). Details: CHO cells expressing the human CB1 receptor and a luciferase reporter gene; 5 h incubation at 37° C.
T1 construct: expressed in transfected cells; host or cells: CHO (Chinese Hamster Ovary) cells
T1 sequence (P21554 whole entry): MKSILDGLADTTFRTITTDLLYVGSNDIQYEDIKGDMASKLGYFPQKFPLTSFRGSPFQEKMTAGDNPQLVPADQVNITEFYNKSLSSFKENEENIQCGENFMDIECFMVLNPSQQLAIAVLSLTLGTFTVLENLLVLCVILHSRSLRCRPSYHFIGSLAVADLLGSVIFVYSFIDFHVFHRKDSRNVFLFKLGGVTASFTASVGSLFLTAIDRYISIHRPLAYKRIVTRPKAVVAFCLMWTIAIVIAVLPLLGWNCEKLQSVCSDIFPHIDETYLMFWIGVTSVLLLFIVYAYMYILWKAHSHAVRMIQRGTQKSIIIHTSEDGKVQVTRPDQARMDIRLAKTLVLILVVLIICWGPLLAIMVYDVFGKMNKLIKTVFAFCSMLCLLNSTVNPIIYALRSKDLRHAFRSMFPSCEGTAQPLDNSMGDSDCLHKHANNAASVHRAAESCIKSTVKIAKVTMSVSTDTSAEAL
Assay type: cell-based
Protocol: Methods to determine receptor binding as well as in vitro biological activity of cannabinoid receptor modulators are well known in the art. In general, expressed receptor is contacted with the compound to be tested and binding or stimulation or inhibition of a functional response is measured.
In-Vitro Determination of Efficacy and Potency at the Human CB1 Receptor Expressed in CHO Cells
Chinese Hamster Ovary (CHO) cells expressing the human CB1 receptor and a luciferase reporter gene were suspended in phenol red/serum free DMEM/F-12 nut mix containing penicillin/streptomycin (50 U/50 μg/ml) and fungizone (1 μg/ml) and seeded into 96 well plates at a density of 3×10^4 cells per well (100 μl final volume). Cells were incubated overnight (approx. 18 h at 37° C., 5% CO2/95% air) prior to assay.
The test compound (10 mM solution in dimethylsulfoxide) was diluted in F12 Nut Mix to give a range of stock solutions from 0.11 mM to 0.11 nM. The stock solutions (10 μl) were added directly to the relevant wells. The plates were incubated at 37° C. for 5 h to allow agonist-induced expression of the luciferase enzyme. Under subdued light, LucLite substrate (Packard; reconstituted as per manufacturer's instructions; 100 μl) was added to each well. Plates were covered with Top Seal and then incubated at room temperature for 5 minutes before counting on the Packard TopCount (single photon counting, 0.01 minute count time, 5 minute count delay).
A “best-fit” curve was fitted by a minimum sum of squares method to the plot of counts per second (CPS) against compound concentration (M) to obtain an EC50 value.
For `CCc1cccc2c(-c3nsc(CN4CCN(CC(=O)OC)CC4)n3)cn(CC3CCOCC3)c12` [Example 6d, 7-Ethyl-3-({5-[4-(methoxycarbonylmethyl)piperazin-1-yl]methyl}-[1,2,4]-thiadiazol-3-yl)-1-(tetrahydropyran-4-yl)methyl-1H-indole], the EC50 was 63.1 nM. `NC(=O)CN1CCCN(Cc2nc(-c3cn(CC4CCOCC4)c4c(Cl)cccc34)no2)CC1` [Example 21d, 3-{5-[4-(Carbamoylmethyl)-homopiperazin-1-ylmethyl]-[1,2,4]-oxadiazol-3-yl}-7-chloro-1-[(tetrahydropyran-4-yl)methyl]-1H-indole] was tested, and the EC50 was 63.1 nM. For `O=S1(=O)CCC(Cn2cc(-c3noc(CN4CCN(Cc5ncon5)CC4)n3)c3cccc(Cl)c32)CC1` [Example 17, 7-Chloro-3-({5-[4-([1,2,4]oxadiazol-3-ylmethyl)piperazin-1-yl]methyl}-[1,2,4]-oxadiazol-3-yl)-1-(1,1-dioxo-hexahydrothiopyran-4-yl)methyl-1H-indole], the EC50 was 158 nM. `COc1cccc2c(-c3nsc(CN4CCN(CC(N)=O)CC4)n3)cn(CC3CCOCC3)c12` [Example 7a, 3-({5-[4-(Carbamoylmethyl)piperazin-1-yl]methyl}-[1,2,4]-thiadiazol-3-yl)-7-methoxy-1-(tetrahydropyran-4-yl)methyl-1H-indole] showed an EC50 of 100 nM. For `NC(=O)CN1CCN(Cc2nc(-c3cn(CC4CCOCC4)c4c(Cl)cccc34)no2)CC1` [Example 11, 3-({5-[4-(Carbamoylmethyl)piperazin-1-yl]methyl}-[1,2,4]-oxadiazol-3-yl)-7-chloro-1-(tetrahydropyran-4-yl)methyl-1H-indole], the EC50 was 79.4 nM. In the case of `CNC(=O)CN1CCN(Cc2nc(-c3cn(CC4CCOCC4)c4c(Cl)cccc34)no2)C[C@H]1CO` [Example 24, (S)-7-Chloro-3-[5-[3-hydroxymethyl-4-(methylcarbamoylmethyl)piperazin-1-ylmethyl]-[1,2,4]-oxadiazol-3-yl]-1-[(tetrahydropyran-4-yl)methyl]-1H-indole], the EC50 is reported as 12.6 nM. `CCc1cccc2c(-c3nsc(CN4CCN(CC(=O)NC(C)C)CC4)n3)cn(CC3CCOCC3)c12` [Example 6b, 7-Ethyl-3-({5-[4-(N-isopropylcarbamoyl)methylpiperazin-1-yl]methyl}-[1,2,4]-thiadiazol-3-yl)-1-(tetrahydropyran-4-yl)methyl-1H-indole] showed an EC50 of 50.1 nM. `NC(=O)CN1CCN(Cc2nc(-c3cn(CC4CCOCC4)c4c(Cl)cccc34)ns2)CC1` [Example 1, 3-({5-[4-(Carbamoylmethyl)piperazin-1-yl]methyl}-[1,2,4]-thiadiazol-3-yl)-7-chloro-1-(tetrahydropyran-4-yl)methyl-1H-indole] showed an EC50 of 15.8 nM. With `CCNC(=O)CN1CCN(Cc2nc(-c3cn(CC4CCOCC4)c4c(Cl)cccc34)ns2)CC1` [Example 3, 7-Chloro-3-({5-[4-(ethylcarbamoyl)methylpiperazin-1-yl]methyl}-[1,2,4]-thiadiazol-3-yl)-1-(tetrahydropyran-4-yl)methyl-1H-indole] the EC50 was 39.8 nM. Work on `NC(=O)CN1CCN(Cc2csc(-c3cn(CC4CCOCC4)c4c(Cl)cccc34)n2)CC1` [Example 31, 3-({4-[4-(Carbamoylmethyl)piperazin-1-yl]methyl}-[1,3]-thiazol-2-yl)-7-chloro-1-(tetrahydropyran-4-yl)methyl-1H-indole] yielded an EC50 of 63.1 nM.
